Experimental data published in the supplement of paper PMC10307832.

Experiments:
Assay in all cases: relative viability (nuclei count vs DMSO), 5 days (fraction); higher = more cells survive
[1] = tested on: NCI-H1563
Method in brief: (§1)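 Cells from lung cancer lines were seeded into 1536-well plates and, one day later, dosed by pin tool. Treatments were either a single drug or a fixed dose of an anchor drug with five library-drug doses (not always all listed) in √10 steps. After 5 days, nuclei were stained in a one-step fixation (final 0.05% Triton X-100, 1% formaldehyde, 1 ug/ml Hoechst) and counted on 4× images, and relative viability is the treated-to-vehicle nuclei ratio, as the median of duplicate plates.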

[2] = tested on: NCI-H650
Method in brief: as §1

[3] = tested on: NCI-H3122
Method in brief: as §1

[4] = tested on: NCI-H2126
Method in brief: as §1

[5] = tested on: NCI-H1755
Method in brief: as §1

[6] = tested on: LU99A
Method in brief: as §1

[7] = tested on: NCI-H1437
Method in brief: as §1

[8] = tested on: BEN
Method in brief: as §1

[9] = tested on: HCC-44
Method in brief: as §1

[10] = tested on: HCC-15
Method in brief: as §1

[11] = tested on: NCI-H727
Method in brief: as §1

[12] = tested on: NCI-H2023
Method in brief: as §1

[13] = tested on: NCI-H1395
Method in brief: as §1

[14] = tested on: NCI-H1734
Method in brief: as §1

[15] = tested on: SW 1573
Method in brief: as §1

[16] = tested on: NCI-H1915
Method in brief: as §1

[17] = tested on: LC-2-ad
Method in brief: as §1

[18] = tested on: NCI-H2170
Method in brief: as §1

[19] = tested on: NCI-H358
Method in brief: as §1

[20] = tested on: EMC-BAC-2
Method in brief: as §1

[21] = tested on: HOP-62
Method in brief: as §1

CCNC(=O)c1noc(-c2cc(C(C)C)c(O)cc2O)c1-c1ccc(CN2CCOCC2)cc1 [Luminespib] + Cc1nc(NC(=O)N2CCC[C@H]2C(N)=O)sc1-c1ccnc(C(C)(C)C(F)(F)F)c1 [Alpelisib] (partner 2 µM)
relative viability ([1]; first compound 0.002 µM): 0.877 | relative viability ([1]; first compound 0.006325 µM): 0.942 | relative viability ([1]; first compound 0.02 µM): 0.95 | relative viability ([1]; first compound 0.06325 µM): 0.495 | relative viability ([1]; first compound 0.2 µM): 0.537 | relative viability ([2]; first compound 0.002 µM): 1.24 | relative viability ([2]; first compound 0.006325 µM): 1.04 | relative viability ([2]; first compound 0.02 µM): 0.994 | relative viability ([2]; first compound 0.06325 µM): 0.193 | relative viability ([2]; first compound 0.2 µM): 0.145 | relative viability ([3]; first compound 0.002 µM): 0.756 | relative viability ([3]; first compound 0.006325 µM): 0.672 | relative viability ([3]; first compound 0.02 µM): 0.648 | relative viability ([3]; first compound 0.06325 µM): 0.179 | relative viability ([3]; first compound 0.2 µM): 0.149 | relative viability ([4]; first compound 0.002 µM): 0.739 | relative viability ([4]; first compound 0.006325 µM): 0.727 | relative viability ([4]; first compound 0.02 µM): 0.538 | relative viability ([4]; first compound 0.06325 µM): 0.748 | relative viability ([4]; first compound 0.2 µM): 0.838 | relative viability ([5]; first compound 0.002 µM): 0.972 | relative viability ([5]; first compound 0.006325 µM): 0.887 | relative viability ([5]; first compound 0.02 µM): 0.823 | relative viability ([5]; first compound 0.06325 µM): 0.905 | relative viability ([5]; first compound 0.2 µM): 0.561 | relative viability ([6]; first compound 0.002 µM): 0.534 | relative viability ([6]; first compound 0.006325 µM): 0.526 | relative viability ([6]; first compound 0.02 µM): 0.311 | relative viability ([6]; first compound 0.06325 µM): 0.11 | relative viability ([6]; first compound 0.2 µM): 0.0992 | relative viability ([7]; first compound 0.002 µM): 0.878 | relative viability ([7]; first compound 0.006325 µM): 0.919 | relative viability ([7]; first compound 0.02 µM): 1.16 | relative viability ([7]; first compound 0.06325 µM): 0.294 | relative viability ([7]; first compound 0.2 µM): 0.107 | relative viability ([8]; first compound 0.002 µM): 1.1 | relative viability ([8]; first compound 0.006325 µM): 0.964 | relative viability ([8]; first compound 0.02 µM): 0.393 | relative viability ([8]; first compound 0.06325 µM): 0.709 | relative viability ([8]; first compound 0.2 µM): 0.224 | relative viability ([9]; first compound 0.002 µM): 0.82 | relative viability ([9]; first compound 0.006325 µM): 0.886 | relative viability ([9]; first compound 0.02 µM): 0.851 | relative viability ([9]; first compound 0.06325 µM): 0.152 | relative viability ([9]; first compound 0.2 µM): 0.154 | relative viability ([10]; first compound 0.002 µM): 0.964 | relative viability ([10]; first compound 0.006325 µM): 0.852 | relative viability ([10]; first compound 0.02 µM): 0.773 | relative viability ([10]; first compound 0.06325 µM): 0.54 | relative viability ([10]; first compound 0.2 µM): 0.492 | relative viability ([11]; first compound 0.002 µM): 0.553 | relative viability ([11]; first compound 0.006325 µM): 0.584 | relative viability ([11]; first compound 0.02 µM): 0.504 | relative viability ([11]; first compound 0.06325 µM): 0.234 | relative viability ([11]; first compound 0.2 µM): 0.228 | relative viability ([12]; first compound 0.002 µM): 0.59 | relative viability ([12]; first compound 0.006325 µM): 0.609 | relative viability ([12]; first compound 0.02 µM): 0.529 | relative viability ([12]; first compound 0.06325 µM): 0.255 | relative viability ([12]; first compound 0.2 µM): 0.0672 | relative viability ([13]; first compound 0.002 µM): 1.37 | relative viability ([13]; first compound 0.006325 µM): 1.03 | relative viability ([13]; first compound 0.02 µM): 1.17 | relative viability ([13]; first compound 0.06325 µM): 0.469 | relative viability ([13]; first compound 0.2 µM): 0.349 | relative viability ([14]; first compound 0.002 µM): 0.708 | relative viability ([14]; first compound 0.006325 µM): 0.736 | relative viability ([14]; first compound 0.02 µM): 0.541 | relative viability ([14]; first compound 0.06325 µM): 0.213 | relative viability ([14]; first compound 0.2 µM): 0.158 | relative viability ([15]; first compound 0.002 µM): 0.714 | relative viability ([15]; first compound 0.006325 µM): 0.728 | relative viability ([15]; first compound 0.02 µM): 0.501 | relative viability ([15]; first compound 0.06325 µM): 0.165 | relative viability ([15]; first compound 0.2 µM): 0.113 | relative viability ([16]; first compound 0.002 µM): 1.09 | relative viability ([16]; first compound 0.006325 µM): 0.987 | relative viability ([16]; first compound 0.02 µM): 0.862 | relative viability ([16]; first compound 0.06325 µM): 1.08 | relative viability ([16]; first compound 0.2 µM): 1.04 | relative viability ([17]; first compound 0.002 µM): 0.881 | relative viability ([17]; first compound 0.006325 µM): 0.821 | relative viability ([17]; first compound 0.02 µM): 0.858 | relative viability ([17]; first compound 0.06325 µM): 0.123 | relative viability ([17]; first compound 0.2 µM): 0.092 | relative viability ([18]; first compound 0.002 µM): 0.763 | relative viability ([18]; first compound 0.006325 µM): 0.79 | relative viability ([18]; first compound 0.02 µM): 0.526 | relative viability ([18]; first compound 0.06325 µM): 0.504 | relative viability ([18]; first compound 0.2 µM): 0.172 | relative viability ([19]; first compound 0.002 µM): 0.841 | relative viability ([19]; first compound 0.006325 µM): 0.76 | relative viability ([19]; first compound 0.02 µM): 0.635 | relative viability ([19]; first compound 0.06325 µM): 0.117 | relative viability ([19]; first compound 0.2 µM): 0.128 | relative viability ([20]; first compound 0.002 µM): 0.746 | relative viability ([20]; first compound 0.006325 µM): 0.707 | relative viability ([20]; first compound 0.02 µM): 0.61 | relative viability ([20]; first compound 0.06325 µM): 0.771 | relative viability ([20]; first compound 0.2 µM): 0.762 | relative viability ([21]; first compound 0.002 µM): 1.17 | relative viability ([21]; first compound 0.006325 µM): 0.79 | relative viability ([21]; first compound 0.02 µM): 0.603 | relative viability ([21]; first compound 0.06325 µM): 0.788 | relative viability ([21]; first compound 0.2 µM): 0.927
